How the values were obtained:
[1] = tested on: MTAP^DEL and KRAS^G12D pancreatic tumor xenograft SU8686 model; assay: MRTX1719 + KRAS G12D inhibitor combination study, SU8686 xenograft; type: in vivo, nu/nu mice; conditions: for Tumor volume: MRTX1133 30 mg/kg BID IP, n=5/group, method gives mm^3
Procedure: (§1) Immunodeficient female mice were implanted with human cancer models harboring homozygous deletion of the MTAP gene (MTAP^DEL) and a KRAS^G12D mutation. Mouse health was monitored daily, and caliper measurements began when tumors were palpable. Tumor volume measurements were determined utilizing the formula 0.5×L×W2 in which L refers to length and W refers to width of each tumor. When tumors reached approximately 200-300 mm^3, animals were randomized to receive A) vehicle, B) a PRMT5 inhibitor administered orally (PO) formulated in 0.5% methylcellulose (4000 cps)/0.2% Tween80 in water, C) KRAS G12D inhibitor administered via intraperitoneal injection (IP) formulated in 10% Captisol in 50 mM Citrate buffer pH 5.0, or D) the PRMT5 inhibitor and KRAS G12D inhibitor. Tumor volumes were measured twice a week (n=5/treatment group). Tumor Growth Inhibition (% TGI) was calculated when the average final treated tumor volume was greater than initial treated tumor volume using the formula: (1-(Final Drug Treated Tumor Volume—Initial Drug Treated Tumor Volume)/(Final Vehicle Treated Tumor Volume -Initial Vehicle Treated Tumor Volume))*100. Percent Regression (% Regression) was calculated when the average tumor volume of final treated tumors was less than initial treated tumor volume using the formula: (−100%)*(1−((Final treated tumor volume)/(Initial treated tumor volume)).
(§2) This example was conducted in immunodeficient female nu/nu mice that were implanted with 5×10^6 SU8686 pancreatic cancer cells in 50% Matrigel. according to the study procedure described above. The PRMT5 inhibitor was MRTX1719 administered at 100 mg/kg once a day (QD). MRTX1719 used is as described herein.
(§3) The KRAS^G12D inhibitor used in this example was MRTX1133 administered at 30 mg/kg twice a day (BID). MRTX1133 used is as described herein.

[2] = tested on: MTAP^DEL and KRAS^G12D pancreatic tumor xenograft KP4 model; assay: MRTX1719 + KRAS G12D inhibitor combination study, KP4 xenograft; type: in vivo, nu/nu mice; conditions: MRTX1133 30 mg/kg BID IP; for Tumor volume: n=5/group, method gives mm^3, in mm³; for % TGI (Tumor Growth Inhibition): final vs initial treated tumor volume relative to vehicle, MRTX1719 100 mg/kg QD PO
Procedure: as §1
as §2, with “5×10^6 KP4” for “5×10^6 SU8686”, “is a” for “is as”
as §3

[3] = Study Day 2, MRTX1719 100 mg/kg QD PO
[4] = Study Day 7, MRTX1719 100 mg/kg QD PO
[5] = Study Day 9, MRTX1719 100 mg/kg QD PO
[6] = Study Day 13, MRTX1719 100 mg/kg QD PO
[7] = Study Day 16, MRTX1719 100 mg/kg QD PO
[8] = Study Day 20, MRTX1719 100 mg/kg QD PO
[9] = Study Day 23, MRTX1719 100 mg/kg QD PO
[10] = Study Day 28, MRTX1719 100 mg/kg QD PO
[11] = Study Day 31, MRTX1719 100 mg/kg QD PO
[12] = Study Day 34, MRTX1719 100 mg/kg QD PO
[13] = Study Day 37, MRTX1719 100 mg/kg QD PO
[14] = Study Day 41, MRTX1719 100 mg/kg QD PO
[15] = Study Day 44, MRTX1719 100 mg/kg QD PO
[16] = Study Day −1, MRTX1719 100 mg/kg QD PO
[17] = Study Day 0, MRTX1719 100 mg/kg QD PO
[18] = Study Day 3, MRTX1719 100 mg/kg QD PO
[19] = Study Day 10, MRTX1719 100 mg/kg QD PO
[20] = Study Day 14, MRTX1719 100 mg/kg QD PO
[21] = Study Day 17, MRTX1719 100 mg/kg QD PO
[22] = Study Day 21, MRTX1719 100 mg/kg QD PO
[23] = Study Day 24, MRTX1719 100 mg/kg QD PO

`Cn1ncc(-c2ccc3c(=O)[nH]nc(CN)c3c2)c1-c1c(F)c(Cl)cc(OC2CC2)c1C#N` [MRTX1719] showed a Tumor volume [1, 3] of 255 mm³, a Tumor volume [1, 4] of 317 mm³ and a Tumor volume [1, 5] of 369 mm³. It also gave a Tumor volume [1, 6] of 415 mm³, a Tumor volume [1, 7] of 464 mm³ and a Tumor volume [1, 8] of 467 mm³. The Tumor volume [1, 9] was 419 mm³, the Tumor volume [1, 10] was 396 mm³ and the Tumor volume [1, 11] was 373 mm³. For the same compound, the Tumor volume [1, 12] was 372 mm³, the Tumor volume [1, 13] was 362 mm³ and the Tumor volume [1, 14] was 356 mm³. The Tumor volume [1, 15] was 337 mm³, the Tumor volume [1, 16] was 200 mm³ and the “% TGI (Tumor Growth Inhibition)” value ([1]; final vs initial treated tumor volume relative to vehicle, MRTX1719 100 mg/kg QD PO) was 88.3%. The Tumor volume [2, 17] was 277, the Tumor volume [2, 18] was 431 and the Tumor volume [2, 4] was 616. The Tumor volume [2, 19] was 716, the Tumor volume [2, 20] was 772 and the Tumor volume [2, 21] was 887. The Tumor volume [2, 22] was 1222, the Tumor volume [2, 23] was 1487 and the “% TGI (Tumor Growth Inhibition)” value [2] was 29.1%.
Work on `C#Cc1c(F)ccc2cc(O)cc(-c3ncc4c(N5CC6CCC(C5)N6)nc(OC[C@@]56CCCN5C[C@H](F)C6)nc4c3F)c12` [MRTX1133] yielded a Tumor volume [1, 3] of 180 mm³, a Tumor volume [1, 4] of 143 mm³ and a Tumor volume [1, 5] of 142 mm³. It also gave a Tumor volume [1, 6] of 146 mm³, a Tumor volume [1, 7] of 145 mm³ and a Tumor volume [1, 8] of 164 mm³. It also gave a Tumor volume [1, 9] of 166 mm³, a Tumor volume [1, 10] of 151 mm³ and a Tumor volume [1, 11] of 183 mm³. It also gave a Tumor volume [1, 12] of 191 mm³, a Tumor volume [1, 13] of 209 mm³ and a Tumor volume [1, 14] of 213 mm³. The Tumor volume [1, 15] was 204 mm³, the Tumor volume [1, 16] was 212 mm³ and the “% Regression” value ([1]; final vs initial treated tumor volume, MRTX1133 30 mg/kg BID IP alone or with MRTX1719 100 mg/kg QD PO) was −4.2%. For the same compound, the Tumor volume [2, 17] was 276, the Tumor volume [2, 18] was 202 and the Tumor volume [2, 4] was 132. The Tumor volume [2, 19] was 99, the Tumor volume [2, 20] was 80 and the Tumor volume [2, 21] was 91. For the same compound, the Tumor volume [2, 22] was 144, the Tumor volume [2, 23] was 250 and the Tumor volume [2, 10] was 518. The Tumor volume [2, 11] was 766, the Tumor volume ([2]; Study Day 35, MRTX1719 100 mg/kg QD PO) was 1064 and the “% TGI (Tumor Growth Inhibition)” value [2] was 53.8%.

Source: patent US20250312343A1, “COMBINATION THERAPIES USING PRMT5 INHIBITORS AND KRAS G12D INHIBITORS FOR THE TREATMENT OF CANCER” (MIRATI THERAPEUTICS, INC., priority 2024, published 2025)
